In patent US7423068B2, “Control of parasitic mites of honey bees” (The United States of America as represented by the …, priority 2001, dated 2008):
Marks after values point to notes of the source that are not given here.

Tests used:
[1] = Release rate of 2-heptanone from acrylic blocks; format: physicochemical; conditions: acrylic block, 34° C.
Source text: Blocks having the following composition were made:
Polymerization was triggered with 2.9% benzoyl peroxide and 1.1% dimethylparatoluidine. Each block weighed approximately 30 grams (Diam. 60 mm, Height 10 mm). The blocks were molded in an aluminum cup.
However, it was found, because of a packaging problem, that the blocks lost some active ingredient during transportation and had only 30% 2-heptanone. To avoid any further loss of active ingredient, the unused samples were stored at all times in a refrigerator at 4° C. The value of 30% 2-heptanone was kept for further processing of the data. The rate at which 2-heptanone was released from the blocks was measured. The experimental procedure consisted in weighing the acrylic blocks left in their aluminum mold at regular intervals. The blocks were kept in an incubator set at 34° C. (temperature of the center of the brood nest in a honey bee hive). It is noteworthy that the incubator is not air tight and that the incubator glass door had to be opened to retrieve the sample to be weighed. An Isotemp Incubator from Fisher Scientific was used. The incubator has a measured volume of 71 liters. The samples were monitored for 44 days.

Varroa mites = experiment: Attractant petri dish bioassay with 20% 2-heptanone gel formulation; format: in vivo, Varroa jacobsoni; conditions: 40 μL of 20% 2-heptanone gel
Procedure: We conducted bioassays to deternine if 2-heptanone attracts Varroa mites. In the first bioassay, we exposed free-running adult mites to volatiles from a 20% 2-heptanone in a gel formulation. […] 40 μL of 20% 2-heptanone in a gel formulation was added to a weighing boat located in the center of the petri dish. Control dishes were set up as described above with empty weighing boats in the center. Within 24 hours 27.3% of the mites were found in the gel formulation of 2-heptanone located in the weighing boat in the center of the petri dish. No mites were found in the weighing boat in the Control dish. The bioassay was repeated using the same procedure as described above. In the second replicate, 16.7% of the mites were found in the gel formulation of 2-heptanone located in the weighing boat in the center of the petri dish and again 0% were found in the weighing boats of the Control dishes.

[2] = Diffusion of 2-heptanone from controlled release strip; format: physicochemical; conditions: polyurethane core with 60 g 2-heptanone, in 5-frame colony
Procedure: This test (Trial 3) was carried out in 5-frame colonies as described above except for the following changes. In this test, 2-heptanone was released using a controlled release strip as described in U.S. Pat. No. 5,750,129. In brief, the controlled release strip was composed of a polymer sleeve 20 cm long and 5 cm wide in which a polyurethane core containing 60 g 2-heptanone was sealed. The 2-heptanone strip was placed on the top of the frame (top bar). The controlled diffusion of 2-heptanone through the membrane occurred over a period of 3 weeks. A new 2-heptanone controlled release strip was placed on the top bar after 3 weeks. The Apistan® strip was placed between the frames as described above. The Control comprised no treatment.

[3] = tested on: honey bee (Apis mellifera L.) colony; experiment: Influence of 2-heptanone on honey bee colony behavior (two-frame observation hive); format: in vivo
Procedure: Tests were conducted with 2-heptanone in pure form and in a 30% concentration in acrylic block made as in Example 6 to determine its effects on the honey bee (Apis mellifera L.) colony behavior. A two-frame observation hive (the hive had one frame on the bottom with adult worker bees and brood and a top frame with adult worker bees and honey) with a laying queen was used for the study. […] Within 4 hours the 2-heptanone had evaporated, and the bees returned to the frame, and the fanning stopped.
To test the effects of 2-heptanone in acrylic blocks, we again conducted studies using two frame observation hives arranged as described above. For one week prior to inserting the acrylic blocks, we measured queen ovipositions, and the number of workers bees leaving the hive per 5-minute interval in four observation colonies. We also counted the number of workers in a court surrounding the queen once during the 5-minute interval. We then added one acrylic block dispenser with a surface area of 8.04 cm^2 containing a 30% concentration of 2-heptanone. […] The latter served as Controls.

[4] = filter paper with 40 μl of pure 2-heptanone

## CCCCCC(C)=O [2-Heptanone]
[1]; Day 0
  % 2-Heptanone loss (initial conc. 30%): 0%
  Daily release in percentage: 0 percentage
[1]; Day 1
  % 2-Heptanone loss (initial conc. 30%): 29.13%
  Daily release in percentage: 29.13 percentage
[1]; Day 2
  % 2-Heptanone loss (initial conc. 30%): 38.76%
  Daily release in percentage: 9.63 percentage
[1]; Day 3
  % 2-Heptanone loss (initial conc. 30%): 49.04%
  Daily release in percentage: 10.28 percentage
[1]; Day 4
  % 2-Heptanone loss (initial conc. 30%): 55.72%
  Daily release in percentage: 6.68 percentage
[1]; Day 7
  % 2-Heptanone loss (initial conc. 30%): 68.85%
  Daily release in percentage: 4.38 percentage
[1]; Day 8
  % 2-Heptanone loss (initial conc. 30%): 71.82%
  Daily release in percentage: 2.97 percentage
[1]; Day 9
  % 2-Heptanone loss (initial conc. 30%): 74.7%
  Daily release in percentage: 2.88 percentage
[1]; Day 10
  % 2-Heptanone loss (initial conc. 30%): 76.09%
  Daily release in percentage: 1.39 percentage
[1]; Day 11
  % 2-Heptanone loss (initial conc. 30%): 77.88%
  Daily release in percentage: 1.79 percentage
[1]; Day 14
  % 2-Heptanone loss (initial conc. 30%): 82.31%
  Daily release in percentage: 1.48 percentage
[1]; Day 15
  % 2-Heptanone loss (initial conc. 30%): 83.43%
  Daily release in percentage: 1.12 percentage
[1]; Day 16
  % 2-Heptanone loss (initial conc. 30%): 84.39%
  Daily release in percentage: 0.96 percentage
[1]; Day 18
  % 2-Heptanone loss (initial conc. 30%): 86.24%
  Daily release in percentage: 0.92 percentage
[1]; Day 21
  % 2-Heptanone loss (initial conc. 30%): 88.43%
  Daily release in percentage: 0.73 percentage
[1]; Day 24
  % 2-Heptanone loss (initial conc. 30%): 89.98%
  Daily release in percentage: 0.52 percentage
[1]; Day 30
  % 2-Heptanone loss (initial conc. 30%): 92.36%
  Daily release in percentage: 0.4 percentage
[1]; Day 44
  % 2-Heptanone loss (initial conc. 30%): 95.21%
  Daily release in percentage: 0.2 percentage
Varroa mites; second replicate, Control 0%
  % of the mites found in the gel formulation in the weighing boat: 16.7%
Varroa mites; within 24 hours, first bioassay, Control none
  % of the mites found in the gel formulation in the weighing boat: 27.3%
[2]
  period of controlled diffusion of 2-heptanone through the membrane: 3 weeks
[3]; acrylic block 8.04 cm^2, 30% 2-heptanone
  immediate effect on the bees on the frames: no immediate effect on the bees on the frames
[3]; acrylic block 8.04 cm^2, 30% 2-heptanone, average per 5-minute interval, pretreatment 5.3
  Ovipositions, Post-Treatment: 5.3
[3]; acrylic block 8.04 cm^2, 30% 2-heptanone, average per 5-minute interval, pretreatment 10.2
  Workers in court, Post-Treatment: 10.2
[3]; acrylic block 8.04 cm^2, 30% 2-heptanone, average per 5-minute interval, pretreatment 16.1, significantly different p = 0.05
  Foragers leaving, Post-Treatment: 23.6*
[3]; [4]
  bee behavior after placing 2-heptanone in observation colony: all the bees moved off of the frame and began to fan
  time until 2-heptanone evaporated, bees returned to the frame and fanning stopped: ≤ 4 h
